Data published in ChEMBL document CHEMBL4265872, “Around the macrolide - Impact of 3D structure of macrocycles on lipophilicity and cellular accumulation” (Eur J Med Chem, 2017).

Experiments:
[1] = Drug accumulation in human NCI-H292 cells at 3 to 10 uM incubated for 3 hrs by LC-MS analysis relative to azithromycin; type: ADME, cell-based; conditions: nci-h292, 3 h
[2] = Chromatographic hydrophobicity, logD of the compound at pH 7.4 by fast-gradient RP-HPLC method; type: physicochemical; conditions: buffer

Work on `CCCCCCCC(=O)NCCCN(C)[C@H]1C[C@@H](C)O[C@@H](O[C@@H]2[C@@H](C)[C@H](O[C@H]3C[C@@](C)(OC)[C@@H](O)[C@H](C)O3)[C@@H](C)C(=O)O[C@H](CC)[C@@](C)(O)[C@H](O)[C@@H](C)C(=O)[C@H](C)C[C@@]2(C)OC)[C@@H]1O` yielded a Drug uptake [1] of 363% and a chromatographic logD [2] of 6.44.

With `CC[C@H]1OC(=O)[C@H](C)[C@@H](O[C@H]2C[C@@](C)(OC)[C@@H](O)[C@H](C)O2)[C@H](C)[C@@H](O[C@@H]2O[C@H](C)C[C@H](N(C)C)[C@H]2O)[C@](C)(O)C[C@@H](C)CN(C)[C@H](C)[C@@H](O)[C@]1(C)O` [AZITHROMYCIN] the Drug uptake [1] was 100% and the chromatographic logD [2] was 2.11.

`CC[C@H]1OC(=O)[C@H](C)[C@@H](O[C@H]2C[C@@](C)(OC)[C@@H](O)[C@H](C)O2)[C@H](C)[C@@H](O[C@@H]2O[C@H](C)C[C@H](N(C)C)[C@H]2O)[C@](C)(O)C[C@@H](C)CN(CCCNC(=O)c2c(C)nn(C)c2Cl)[C@H](C)[C@@H](O)[C@]1(C)O` gave a Drug uptake [1] of 5% and a chromatographic logD [2] of 2.2.

Molecule `CC[C@H]1OC(=O)[C@H](C)[C@@H](O[C@H]2C[C@@](C)(OC)[C@@H](O)[C@H](C)O2)[C@H](C)[C@@H](O[C@@H]2O[C@H](C)C[C@H](N(C)C)[C@H]2O)[C@](C)(O)C[C@@H](C)CN(C)[C@H](C)[C@@H](OCCCNC(C)=O)[C@]1(C)O` has a Drug uptake [1] of 7% and a chromatographic logD [2] of 2.41.

In the case of `CCCCCCCC(=O)NCCCO[C@@H]1[C@@H](C)N(C)C[C@H](C)C[C@@](C)(O)[C@H](O[C@@H]2O[C@H](C)C[C@H](N(C)C)[C@H]2O)[C@@H](C)[C@H](O[C@H]2C[C@@](C)(OC)[C@@H](O)[C@H](C)O2)[C@@H](C)C(=O)O[C@H](CC)[C@@]1(C)O`, the Drug uptake [1] is reported as 756% and the chromatographic logD [2] is reported as 5.18.

`CCC(=O)NCCCO[C@H]1[C@H](O[C@@H]2[C@@H](C)[C@H](O[C@H]3C[C@@](C)(OC)[C@@H](O)[C@H](C)O3)[C@@H](C)C(=O)O[C@H](CC)[C@@](C)(O)[C@H](O)[C@@H](C)N(C)C[C@H](C)C[C@@]2(C)O)O[C@H](C)C[C@@H]1N(C)C` showed a Drug uptake [1] of 41% and a chromatographic logD [2] of 2.7.

`CC[C@H]1OC(=O)[C@H](C)[C@@H](O)[C@H](C)[C@@H](O)[C@](C)(O)C[C@@H](C)CN(C)[C@H](C)[C@@H](O)[C@]1(C)O` [AZITHROMYCIN AGLYCONE] showed a Drug uptake [1] of 13% and a chromatographic logD [2] of 1.29.

Work on `CCC(=O)NCCCO[C@H]1[C@H](C)O[C@@H](O[C@H]2[C@H](C)[C@@H](O[C@@H]3O[C@H](C)C[C@H](N(C)C)[C@H]3O)[C@](C)(O)C[C@@H](C)CN(C)[C@H](C)[C@@H](O)[C@](C)(O)[C@@H](CC)OC(=O)[C@@H]2C)C[C@@]1(C)OC` yielded a Drug uptake [1] of 15% and a chromatographic logD [2] of 2.54.

With `CCCCCCCC(=O)NCCCN(C)[C@H]1C[C@@H](C)O[C@@H](O[C@@H]2[C@@H](C)[C@H](O)[C@@H](C)C(=O)O[C@H](CC)[C@@](C)(O)[C@H](O)[C@@H](C)N(C)C[C@H](C)C[C@@]2(C)O)[C@@H]1O` the Drug uptake [1] was 226% and the chromatographic logD [2] was 4.84.

Work on `CC[C@H]1OC(=O)[C@H](C)[C@@H](OCCCNC(=O)c2c(C)nn(C)c2Cl)[C@H](C)[C@@H](O[C@@H]2O[C@H](C)C[C@H](N(C)C)[C@H]2O)[C@](C)(O)C[C@@H](C)CN(C)[C@H](C)[C@@H](O)[C@]1(C)O` yielded a Drug uptake [1] of 59%.

Work on `CC[C@H]1OC(=O)[C@H](C)[C@@H](O[C@H]2C[C@@](C)(OC)[C@@H](O)[C@H](C)O2)[C@H](C)[C@@H](O[C@@H]2O[C@H](C)C[C@H](N(C)C)[C@H]2OCCCNC(=O)c2c(C)nn(C)c2Cl)[C@](C)(O)C[C@@H](C)CN(C)[C@H](C)[C@@H](O)[C@]1(C)O` yielded a Drug uptake [1] of 95% and a chromatographic logD [2] of 3.08.

For `CC[C@H]1OC(=O)[C@H](C)[C@@H](O[C@H]2C[C@@](C)(OC)[C@@H](O)[C@H](C)O2)[C@H](C)[C@@H](O[C@@H]2O[C@H](C)C[C@H](N(C)C)[C@H]2O)[C@](C)(OC)C[C@@H](C)C(=O)[C@H](C)[C@@H](OCCCNC(C)=O)[C@]1(C)O`, the Drug uptake [1] was 11% and the chromatographic logD [2] was 2.72.

Molecule `CC[C@H]1OC(=O)[C@H](C)[C@@H](O[C@H]2C[C@@](C)(OC)[C@@H](OCCCNC(C)=O)[C@H](C)O2)[C@H](C)[C@@H](O[C@@H]2O[C@H](C)C[C@H](N(C)C)[C@H]2O)[C@](C)(OC)C[C@@H](C)C(=O)[C@H](C)[C@@H](O)[C@]1(C)O` has a Drug uptake [1] of 30% and a chromatographic logD [2] of 3.08.

With `CCCCC(=O)NCCCO[C@@H]1[C@@H](C)N(C)C[C@H](C)C[C@@](C)(O)[C@H](O[C@@H]2O[C@H](C)C[C@H](N(C)C)[C@H]2O)[C@@H](C)[C@H](O[C@H]2C[C@@](C)(OC)[C@@H](O)[C@H](C)O2)[C@@H](C)C(=O)O[C@H](CC)[C@@]1(C)O` the Drug uptake [1] was 756% and the chromatographic logD [2] was 3.74.

`CCCCCCCC(=O)NCCCO[C@H]1[C@H](C)O[C@@H](O[C@H]2[C@H](C)[C@@H](O[C@@H]3O[C@H](C)C[C@H](N(C)C)[C@H]3O)[C@](C)(OC)C[C@@H](C)C(=O)[C@H](C)[C@@H](O)[C@](C)(O)[C@@H](CC)OC(=O)[C@@H]2C)C[C@@]1(C)OC` showed a Drug uptake [1] of 281% and a chromatographic logD [2] of 6.02.

In the case of `CCCCCCCC(=O)NCCCN(C)[C@H]1C[C@@H](C)O[C@@H](O[C@@H]2[C@@H](C)[C@H](O[C@H]3C[C@@](C)(OC)[C@@H](O)[C@H](C)O3)[C@@H](C)C(=O)O[C@H](CC)[C@@](C)(O)[C@H](O)[C@@H](C)N(C)C[C@H](C)C[C@@]2(C)O)[C@@H]1O`, the Drug uptake [1] is reported as 457% and the chromatographic logD [2] is reported as 3.74.

In the case of `CC[C@H]1OC(=O)[C@H](C)[C@@H](O[C@H]2C[C@@](C)(OC)[C@@H](O)[C@H](C)O2)[C@H](C)[C@@H](O[C@@H]2O[C@H](C)C[C@H](N(C)C)[C@H]2O)[C@](C)(OC)C[C@@H](C)/C(=N\O)[C@H](C)[C@@H](O)[C@]1(C)O`, the Drug uptake [1] is reported as 48% and the chromatographic logD [2] is reported as 3.61.

For `CCC(=O)NCCCO[C@@H]1[C@@H](C)N(C)C[C@H](C)C[C@@](C)(O)[C@H](O[C@@H]2O[C@H](C)C[C@H](N(C)C)[C@H]2O)[C@@H](C)[C@H](O[C@H]2C[C@@](C)(OC)[C@@H](O)[C@H](C)O2)[C@@H](C)C(=O)O[C@H](CC)[C@@]1(C)O`, the Drug uptake [1] was 41% and the chromatographic logD [2] was 2.74.

`CCC(=O)NCCCO[C@H]1[C@H](C)[C@@H](O[C@@H]2O[C@H](C)C[C@H](N(C)C)[C@H]2O)[C@](C)(O)C[C@@H](C)CN(C)[C@H](C)[C@@H](O)[C@](C)(O)[C@@H](CC)OC(=O)[C@@H]1C` gave a Drug uptake [1] of 22% and a chromatographic logD [2] of 1.6.

Molecule `CC[C@H]1OC(=O)[C@H](C)[C@@H](O[C@H]2C[C@@](C)(OC)[C@@H](O)[C@H](C)O2)[C@H](C)[C@@H](O[C@@H]2O[C@H](C)C[C@H](N(C)C)[C@H]2O)[C@](C)(O)C[C@@H](C)CN(C)[C@H](C)[C@@H](OCCCNC(=O)C2CCC2)[C@]1(C)O` has a Drug uptake [1] of 138% and a chromatographic logD [2] of 3.5.

In the case of `CC[C@H]1OC(=O)[C@H](C)[C@@H](O[C@H]2C[C@@](C)(OC)[C@@H](O)[C@H](C)O2)[C@H](C)[C@@H](O[C@@H]2O[C@H](C)C[C@H](N(C)C)[C@H]2O)[C@](C)(OC)C[C@@H](C)C(=O)N[C@H](C)[C@@H](O)[C@]1(C)O`, the Drug uptake [1] is reported as 10% and the chromatographic logD [2] is reported as 2.41.

In the case of `CC[C@H]1OC(=O)[C@H](C)[C@@H](O[C@H]2C[C@@](C)(OC)[C@@H](OCCCNC(C)=O)[C@H](C)O2)[C@H](C)[C@@H](O[C@@H]2O[C@H](C)C[C@H](N(C)C)[C@H]2O)[C@](C)(O)C[C@@H](C)CN(C)[C@H](C)[C@@H](O)[C@]1(C)O`, the Drug uptake [1] is reported as 6% and the chromatographic logD [2] is reported as 2.06.

Work on `CCC(=O)NCCCN1C[C@H](C)C[C@@](C)(O)[C@H](O[C@@H]2O[C@H](C)C[C@H](N(C)C)[C@H]2O)[C@@H](C)[C@H](O[C@H]2C[C@@](C)(OC)[C@@H](O)[C@H](C)O2)[C@@H](C)C(=O)O[C@H](CC)[C@@](C)(O)[C@H](O)[C@H]1C` yielded a Drug uptake [1] of 0% and a chromatographic logD [2] of 1.86.

Work on `CCCCCCCC(=O)NCCCN1C[C@H](C)C[C@@](C)(O)[C@H](O[C@@H]2O[C@H](C)C[C@H](N(C)C)[C@H]2O)[C@@H](C)[C@H](O)[C@@H](C)C(=O)O[C@H](CC)[C@@](C)(O)[C@H](O)[C@H]1C` yielded a Drug uptake [1] of 80% and a chromatographic logD [2] of 3.08.

With `CC[C@H]1OC(=O)[C@H](C)[C@@H](O[C@H]2C[C@@](C)(OC)[C@@H](OCCCNC(=O)COC)[C@H](C)O2)[C@H](C)[C@@H](O[C@@H]2O[C@H](C)C[C@H](N(C)C)[C@H]2O)[C@](C)(O)C[C@@H](C)CN(C)[C@H](C)[C@@H](O)[C@]1(C)O` the Drug uptake [1] was 9% and the chromatographic logD [2] was 2.16.

Molecule `CC[C@H]1OC(=O)[C@H](C)[C@@H](O[C@H]2C[C@@](C)(OC)[C@@H](O)[C@H](C)O2)[C@H](C)[C@@H](O[C@@H]2O[C@H](C)C[C@H](N(C)C)[C@H]2O)[C@](C)(O)C[C@@H](C)CN(C)[C@H](C)[C@@H](OCCCNC(=O)c2c(C)nn(C)c2Cl)[C@]1(C)O` has a Drug uptake [1] of 51% and a chromatographic logD [2] of 3.01.

Work on `CC[C@H]1OC(=O)[C@H](C)[C@@H](O[C@H]2C[C@@](C)(OC)[C@@H](O)[C@H](C)O2)[C@H](C)[C@@H](O[C@@H]2O[C@H](C)C[C@H](N(C)C)[C@H]2O)[C@](C)(OC)C[C@@H](C)C(=O)[C@H](C)[C@@H](O)[C@]1(C)O` [CLARITHROMYCIN] yielded a Drug uptake [1] of 35% and a chromatographic logD [2] of 3.5.

In the case of `CCCCCCCC(=O)NCCCN1C[C@H](C)C[C@@](C)(O)[C@H](O)[C@@H](C)[C@H](O)[C@@H](C)C(=O)O[C@H](CC)[C@@](C)(O)[C@H](O)[C@H]1C`, the Drug uptake [1] is reported as 63% and the chromatographic logD [2] is reported as 3.49.

`CC[C@H]1OC(=O)[C@H](C)[C@@H](O[C@H]2C[C@@](C)(OC)[C@@H](OC(=O)CN(CC)CC)[C@H](C)O2)[C@H](C)[C@@H](O[C@@H]2O[C@H](C)C[C@H](N(C)C)[C@H]2O)[C@](C)(OC)C[C@@H](C)C(=O)N[C@H](C)[C@@H](O)[C@]1(C)O` gave a Drug uptake [1] of 121% and a chromatographic logD [2] of 3.86.

Work on `CC[C@H]1OC(=O)[C@H](C)[C@@H](O[C@H]2C[C@@](C)(OC)[C@@H](O)[C@H](C)O2)[C@H](C)[C@@H](O[C@@H]2O[C@H](C)C[C@H](N(C)C)[C@H]2O)[C@](C)(O)C[C@@H](C)CN(CCCNC(=O)COC)[C@H](C)[C@@H](O)[C@]1(C)O` yielded a Drug uptake [1] of 2%.
